In patent EP1650209A1, “Griseusin derivatives and their use as antitumor agents” (Oncotest GmbH, priority 2004, dated 2006):
Values after ≈ are worked out from the molar mass of the structure shown.

Tests used:
Experiment in all cases: Proliferation inhibition of cancer cells (propidium iodide fluorescence)
Type in all cases: cell-based, human
UXF 1138L = UXF 1138L cell line
Method: (§1) Using various human cancer cells in vitro, the concentrations of the test compounds (A, B, C, D, E, F), which inhibit the proliferation of cancer cells by 50% (IC50) and 70% (IC70) were determined. Specifically, each cell line of bladder cancer (BXF 1218L and T-24), glioblastoma (CNXF 498NL), colic cancer (HCT-116 and HT-29), gastric cancer (GXF 251 L), head and neck cancer (HNXF 536L), non small cell lung cancer (LXF 1121L, LXF 289L, LXF 526L, LXF 529L, LXF 629L and H-460), mammary cancer (MAXF 401NL, MCF-7, MDA-231 and MDA-468), melanoma (MEXF 276L, MEXF 394NL, MEXF 462NL, MEXF 514L and MEXF 520L), ovary cancer (OVXF 1619L, OVXF 899L and OVCAR-3), pancreatic cancer (PAXF 1657L and PANC-1), prostate cancer (22Rv1, DU-145, LNCaP and PC3M), pleuramesothelioma (PXF 1752L), renal cancer (RXF 1781 L, RXF 393NL, RXF 486L and RXF 944L), and uterine cancer (UXF 1138L) is added to a 96-well microtiter plate at a density of 3.6-11.2x10^3 cells per well in RPMI-1640 medium containing 10% fetal calf serum and 0.1% gentamicin and incubated for 24 hours. After 24 hours RPMI-1640 medium containing 10% fetal calf serum and 0.1% gentamicin, together with a test compound, is added thereto. Then, this plate is incubated at 37°C for 4 days in a humidified atmosphere of air containing 5% CO2. Thereafter, the cell culture medium with or without drug was replaced by 200 µl of an aqueous PI solution (7 µg/ml propidium iodide). Applying a freeze thaw cycle to permeabilize intact cell walls, staining of DNA was achieved, and the fluorescence of each well was measured using the Cy-tofluor 4000 microplate reader (excitation 530 nm, emission 620 nm), giving a direct relationship to the total cell number. Proliferation inhibition is expressed as test versus untreated control (T/C-value [%]). IC50 and IC70 values were determined by plotting compound concentration versus cell viability.

BXF 1218L = conditions: Bladder, BXF 1218L cell line
Method: as §1

MEXF 462NL = MEXF 462NL cell line
Method: as §1

LXFA 526L = conditions: Lung, non small cell, LXFA 526L cell line
Method: as §1

LNCaP = conditions: Prostate, LNCaP cell line
Method: as §1

OVXF 899L = conditions: Ovary, OVXF 899L cell line
Method: as §1

T-24 = conditions: Bladder, T-24 cell line
Method: as §1

PXF 1752L = conditions: Pleuramesothelio, PXF 1752L cell line
Method: as §1

MEXF 276L = conditions: Melanoma, MEXF 276L cell line
Method: as §1

H-460 = conditions: Lung, non small cell, H-460 cell line
Method: as §1

MEXF 520L = conditions: Melanoma, MEXF 520L cell line
Method: as §1

DU-145 = conditions: Prostate, DU-145 cell line
Method: as §1

RXF 486L = RXF 486L cell line
Method: as §1

- IC50 value (UXF 1138L; 4 days): 0.216 µg/mL (≈ 0.54 µM)
- IC50 (UXF 1138L; Uterus): 0.216 µg/mL (≈ 0.54 µM)
- IC50 (BXF 1218L): 0.056 µg/mL (≈ 0.14 µM)
- IC50 value (MEXF 462NL; 4 days): 0.086 µg/mL (≈ 0.215 µM)
- IC50 (MEXF 462NL; Melanoma): 0.086 µg/mL (≈ 0.215 µM)
- IC50 (LXFA 526L): 0.129 µg/mL (≈ 0.322 µM)
- IC50 (LNCaP): 0.107 µg/mL (≈ 0.267 µM)
- IC50 (OVXF 899L): 1.265 µg/mL (≈ 3.16 µM)
- IC50 (T-24): 0.507 µg/mL (≈ 1.27 µM)
- IC50 (PXF 1752L): 0.124 µg/mL (≈ 0.31 µM)
- IC50 (MEXF 276L): 0.112 µg/mL (≈ 0.28 µM)
- IC50 (H-460): 0.490 µg/mL (≈ 1.22 µM)
- IC50 (MEXF 520L): 0.102 µg/mL (≈ 0.255 µM)
- IC50 (DU-145): 0.251 µg/mL (≈ 0.627 µM)
- IC50 (RXF 486L; Kidney): 0.078 µg/mL (≈ 0.195 µM)
- IC50 value (RXF 486L; 4 days): 0.078 µg/mL (≈ 0.195 µM)
SMILES: C[C@@H]1CC(=O)[C@@H](O)[C@]2(O1)O[C@@H]1CC(=O)O[C@@H]1C1=C2C(=O)c2c(O)cccc2C1=O [Compound B, 4'-dehydro-deacetylgriseusin A]
- IC70 (UXF 1138L; Uterus): 0.524 µg/mL (≈ 1.31 µM)
- IC70 (BXF 1218L): 0.133 µg/mL (≈ 0.332 µM)
- IC70 (MEXF 462NL; Melanoma): 0.158 µg/mL (≈ 0.395 µM)
- IC70 (LXFA 526L): 0.206 µg/mL (≈ 0.515 µM)
- IC70 (LNCaP): 0.175 µg/mL (≈ 0.437 µM)
- IC70 (OVXF 899L): 2.249 µg/mL (≈ 5.62 µM)
- IC70 (T-24): 1.137 µg/mL (≈ 2.84 µM)
- IC70 (PXF 1752L): 0.208 µg/mL (≈ 0.52 µM)
- IC70 (MEXF 276L): 0.212 µg/mL (≈ 0.53 µM)
- IC70 (H-460): 1.042 µg/mL (≈ 2.6 µM)
- IC70 (MEXF 520L): 0.175 µg/mL (≈ 0.437 µM)
- IC70 (DU-145): 0.669 µg/mL (≈ 1.67 µM)
- IC70 (RXF 486L; Kidney): 0.142 µg/mL (≈ 0.355 µM)
